Data from patent publication US20250319073A1, “COMPOSITIONS AND METHODS FOR THE TREATMENT OF HUNTINGTON’S DISEASE AND HTT PROTEINOPATHIES” (priority 2022, published 2025).

Tested on: Peripheral Blood Mononuclear Cells (PBMC)
Assay: CellTiter-Glo 2.0 ATP level assay in PBMCs of treated mice
Format: in vivo, mouse
Details: R6/2 mice, 0.5 mg/kg / 5 mg/kg i.p. QD, PBMCs collected at 13 weeks of age
Procedure: Euthanasia & Sample Collection—At 13 weeks of age, 9 mice per group were euthanized by deep anesthesia with sodium pentobarbital (180 mg/kg). The remaining mice were euthanized and any samples were not collected, except the tail and ear samples. A terminal blood sample (as much as possible) was collected by cardiac puncture into a syringe. The whole blood was placed in Li-Hep tube at RT and used immediately for preparation of PBMCs. The whole brain was collected and fresh frozen in liquid nitrogen and stored at −80° C. Blood was collected also from extra animals as staining controls for the flow cytometry assays (n=3 extra animals per day). […]
PBMC Extraction—Whole blood (approximately 400-500 μL) was stored at room temperature (RT) before the start of the PBMC isolations. […] Right before measurement 1 μL of propidium iodide was added and the cell number and viability was determined by MACSquant Analyzer 10 flow cytometer. […]
The cells were analyzed immediately after the staining using the MACSQuant Analyzer 10 (Miltenyi Biotec) and Cytation 3 (Cell titerglow). […]
ATP Levels: CellTiter-Glo 2.0® Assay—The CellTiter-Glo® 2.0 Assay provides a homogeneous method to determine the number of viable cells in culture by quantitating the amount of ATP present, which indicates the presence of metabolically active cells. […]
• 1. […] Place 50,000 cells/well white walled luminescence suitable plate in DPBS. • 3. […]

Cc1cc(O)cc(C)c1C[C@H](NC(=O)[C@H](N)CCCNC(=N)N)C(=O)N[C@@H](CCCCN)c1nc(Cc2ccccc2)no1.Cl.Cl [Compound (Ia), (R)-2-amino-N—((S)-1-(((S)-5-amino-1-(3-benzyl-1,2,4-oxadiazol-5-yl)pentyl)amino)-3-(4-hydroxy-2,6-dimethylphenyl)-1-oxopropan-2-yl)-5-guanidinopentanamide]
ATP levels (Cell Titer Glow) in PBMCs, R6/2+Vehicle vs treated R6/2: no significant differences
